According to patent US20060160897A1, “Topical Use of Valproic Acid for the Prevention or Treatment of Skin Disorders” (priority 2003, published 2006):

How the values were obtained:
HaCaT cells = assay: Apoptosis assay, flow cytometry of Sub-G1 DNA containing cells; assay type: cell-based, human; conditions: drugs day 1, assay day 2, combinations VPA 1 mM + Tazarotene 1 or 2 μM, FIG. 5
Procedure: Apoptosis assays: Apoptosis was measured by a Beckton Dickinson FACScalibur flow cytometer by analysing the percentage of Sub-G1 DNA containing cells. 10000 events were recorded for each sample. The amplification scale was linear for all parameters. Photomultiplier tension was set as to place the peak DNA content corresponding cells in G0/G1 at channel 300 in the FL2-H vs SCC—H graphs. Cells showing a less than peak DNA content (hypodiploid cells) and high SSC—H (granular high condensed cells) were regarded as apoptotic. The experiments were repeated three times in duplicate. Error bars represent 1 standard deviation.
Cells were plated in 35 mm diameter wells on day 0. Drugs were added on day 1. The apoptosis assay was carried out on day 2. […] Thus, the combinatorial activity of these two drugs must be explained via synergistic activity of this treatment.

histone H4 acetylation = assay: Immunohistochemistry of acetylated H4 after topical application to mouse skin; assay type: in vivo; conditions: athymic nude mice, VPA topically applied at 3% (w/w) vs placebo; FIGS. 8 and 9
Procedure: Cryostat skin sections of 3 μm thickness were fixed in acetone at room temperature for 10 min. Before staining with anti-acetylated H4 antibody (clone T25, see above) the tissue was blocked by preincubation with F(ab′)2 fragments derived from goat anti-mouse immunoglobulin (Cappel) ( 1/10000 dilution in 50 mM Tris buffered saline, TBS) for 30 min. After rinsing with TBS for 10 min, the sections were incubated with anti-acetylated H4 antibody (clone T25) ( 1/4000 dilution in TBS) at room temperature for 1 hour. Then, the specimens were incubated with the rabbit anti-mouse serum and treated with APAAP (alkaline phosphatase anti-alkaline phosphatase) immunocomplex as described above. The positive staining was developed in red color with naphthol-AS-BI phosphate as a substrate, and New Fuchsin (Dako) as a chromogen. Pictures were taken with a digital camera connected to a light microscopy apparatus.
Skin biopsies were frozen in liquid nitrogen immediately after excision. Immunohistochemistry was then performed on 3 μm sections as described in methods. Biopsies of skin topically treated with Placebo or VPA were processed in parallel, pictures were taken with a light microscopy apparatus connected to a digital camera under the same light intensity.

## CCCC(CCC)C(=O)O [VPA, 2-propyl-pentanoic acid]
HaCaT cells
  apoptosis (Sub-G1 DNA containing cells): clear increase in subG1 DNA content
Histone H4 acetylation
  histone H4 acetylation in skin cells: clear increase of histone H4 acetylation
